Measured values reported in patent US20120309734A1, “COMBRETASTATIN DERIVATIVES AND USES THEREFOR” (priority 2009, published 2012).
pIC50: −log10 of the molar value.

Key:
A2780-ADR (PGP) = assay: Alamar Blue cell viability assay
Procedure: (§1) Three drug resistant cell lines and respective parental cell lines were assessed. […] Western blot analysis confirmed the overexpression of p-glycoprotein and BCRP in respective cell lines.
(§2) Cells were exposed to multiple concentrations of the indicated compound for 72 h. Cell viability was assessed using the Alamar blue assay and respective IC50 values were calculated. The resistance factor (RF) was calculated by dividing the IC50 of the resistant cell line/IC50 of the parental cell line.
(§3) All cells were cultured in RPMI-1640 Glutamax medium supplemented with 10% FCS media, 100 units/ml penicillin and 100 μg/mIstreptomycin. Cells were maintained at 37° C. in 5% CO2 in a humidified incubator.
(§4) The reduction of Alamar Blue is proportional to the number of viable cells. Cells (200 μl) were plated in triplicate in a 96-well plates (K562, 100,000/ml; HL-60, 300,000/ml; A-2780 50,000/ml). A-2780 cells were plated 24 h prior to treatment. Suspension cells were plated in the log phase of growth and treated immediately. The cells were then treated with either medium alone, vehicle (1% ethanol v/v or 0.1% DMSO v/v) or with a range of concentrations of drug [0.001-10 μM]. After 72 h, Alamar Blue was added to each well (10% of final volume) and fluorescence was read using a 96-well fluorometer with excitation at 530 nm and emission of 590 nm. The blank solution consisted of medium and Alamar Blue and the blank solution was used to calibrate the spectrophotometer to zero absorbance. The relative cell viability (%) related to control wells and was calculated by [A]test/[A]control×100 where [A]test is the absorbance of the drug treated cells and [A]control the absorbance of the vehicle control treated cells. Dose response curves were plotted and IC50 values (concentration of drug resulting in 50% reduction in cell survival) were obtained using the commercial software package Prism (GraphPad Software, Inc., La Jolla, USA). Experiments were performed in triplicate on at least three separate occasions.

HL-60 parental = assay: Alamar Blue cell viability assay; type: cell-based; details: Homo sapiens, 72 h
Procedure: as §2
(§5) A2780-parental and A2780-ADR resistant cells were provided by the Beatson Institute of Cancer Research, Glasgow. […] All cells were cultured in RPMI-1640 Glutamax medium supplemented with 10% FCS media, 100 units/ml penicillin and 100 μg/mIstreptomycin. Cells were maintained at 37° C. in 5% CO2 in a humidified incubator.
as §4

HL-60-BCRP = assay: Alamar Blue cell viability assay
Procedure: as §1, §2, §3, §4

[1] = system: microtubule network of endothelial cells (HUVECs); assay: Microtubule network immunofluorescence; type: cell-based, human; details: 50 nM, 16 h
Procedure: FIG. 9 illustrates the effect of compound 4 in destabilising the microtubule network of endothelial cells. HUVECs (0.6×10^5 cell/chamber), grown on 4-chamber glass slides for 24 h were treated with vehicle (0.5% (v/v) ethanol) or 50 nM compound 4 for 16 h. The cells were then fixed in 100% methanol at −20° C., incubated with a monoclonal anti-α-tubulin antibody (Merck Biosciences, Nottingham, UK), followed by a FITC-conjugated anti-mouse antibody (DakoCytomation, Glostrup, Denmark) and then briefly stained with propidium iodide. The chamber partitions were removed from the slides and anti-quenching solution (2 mg/ml p-phenylenediamine in 50:50 glycerol to PBS solution) was applied to the surface of each slide and coverslips mounted. The organisation of the microtubule network and the cellular DNA was visualised using an Olympus IX81 Fluorescent Microscope (Olympus Corporation, Tokyo, Japan) at a magnification of 600×. The photographs illustrated in FIG. 9 are representative of three independent experiments.

HL-60-MDR(PGP) = assay: Alamar Blue cell viability assay; type: cell-based, human
Procedure: as §1, §2, §3, §4

[2] = system: breast carcinoma MDA-MB-231 cells; assay: Transwell migration assay; type: cell-based, human; details: 50 nM, 6 h
Procedure: FIG. 12 illustrates the migration of breast carcinoma MDA-MB-231 cells across transwell filters in the presence of vehicle (0.5% (v/v) ethanol) or 50 nM compound 4. Migration was expressed as a percentage of migration of vehicle-treated cells (100%). MDA-MB-231 cells (cultured as described supra) were seeded at a density of 2.5×10^4 cells/well onto 24-well Falcon migration inserts (8 μm pore size) in serum-free medium. Inserts were placed into Falcon companion plates containing 20% FBS and either vehicle (0.5% (v/v) ethanol) or 50 nM compound 4 and incubated for 6 h. The upper surfaces of the inserts were swabbed to remove non-migrated cells. Migrated cells on the underside of the membrane were fixed in methanol, stained with Mayers Hematoxylin, dehydrated in methanol and mounted on a glass slide. The number of cells in 5 fields at 10× magnification was counted. […] P-values were determined using a two-tailed Student's paired t-test. A value of P<0.05 was considered to be significant. Incubation for 6 h with compound 4 prevented MDA-MB-231 cell migration by 95.7% (***P<0.0001).

HUVEC cells = assay: HUVEC DNA content by flow cytometry (PI); type: cell-based, human; details: 24 h
Procedure: FIG. 8 illustrates the anti-proliferative response of endothelial cells to compound 4. HUVEC cells were treated with vehicle (0.5% (v/v) ethanol) or the indicated concentrations of 4 for 24 h and fixed by a drop-wise addition of ice-cold ethanol. Cells were then stained with 0.15 mg/ml propidium iodide (PI) and their DNA content assessed using a FACSCalibur flow cytometer (Becton Dickinson, San Jose, Calif., USA). Data collections (10,000 events per sample) were gated to exclude cell debris and cell aggregates. Analysis of data was performed using the CellQuest software (Becton Dickinson). PI fluorescence was proportional to the amount of DNA present in each entity and therefore indicated the stage of the cell cycle. Cells in the subG0/G1 phase (<2N DNA) were deemed apoptotic, while cells with 4N quantities of DNA were considered to be in the G2/M phase of the cell cycle. Values represent the mean±S.E.M for three independent experiments.

HUVECs [3] = assay: In vitro tubule formation on matrigel; type: cell-based, human; details: 50 nM, 6 h
Procedure: FIG. 10 depicts the effect of compound 4 on in vitro tubule formation. HUVECs (1.5×10^6 cells/well) were grown on matrigel-coated 6-well plates for 6 h in the presence of vehicle (0.5% (v/v) ethanol) or 50 nM compound 4. […] The pictures shown in FIG. 10 are representative of three independent experiments. HUVECs seeded onto Matrigel in the presence of vehicle (0.5% (v/v) ethanol) underwent alignment into the capillary-like structures.

HUVECs [4] = assay: VEGF-stimulated transwell migration assay; type: cell-based; details: Homo sapiens, HUVEC; 50 nM, 6 h, 10 ng/ml VEGF
Procedure: This modified transwell migration assay consisted of an upper and a lower chamber separated by a membrane. Migration of HUVECs from the upper to the lower chamber was stimulated by addition of VEGF to the lower chamber. The effect of compound 4 on this migration was determined by its addition along with VEGF into the lower chamber. Migration was expressed as a percentage of migration in control chambers treated with the vehicle (100%). HUVECs 10,000 cells in […] medium were seeded onto fibronectin-coated […] transwell inserts in 24-well plates containing medium. HUVEC migration was stimulated by the addition of 10 ng/ml VEGF to the lower wells. Vehicle (0.5% (v/v) ethanol) or compound 4 (50 nM) were also added to the lower wells. After 6 h, the upper surfaces of the inserts were swabbed to remove non-migrated cells. Filters containing the migrated cells were stained with 0.5% toulidine blue 0 and 0.5% sodium tetraborate. The cells were solubilised in 0.2% (w/v) SDS in 20 mM Tris-HCl, pH 7.7 and staining quantified as absorbance at 650 nm. […] P-values were determined using a two-tailed Student's paired t-test. A value of P<0.05 was considered to be significant.

A2780-parental = assay: Alamar Blue cell viability assay; type: cell-based; details: 72 h
Procedure: as §2, §5, §4

COc1ccc(C2C(c3ccccc3)C(=O)N2c2cc(OC)c(OC)c(OC)c2)cc1O (stereo not shown) [Compound 4, 4-(3-Hydroxy-4-methoxyphenyl)-3-phenyl-1-(3,4,5-trimethoxyphenyl)-azetidin-2-one]
pIC50 (A2780-ADR (PGP); A2780 ADR, 72 h): 7.98
RF (A2780-ADR (PGP); IC50 A2780-ADR (PGP) / IC50 A2780-parental): 0.5
pIC50 (HL-60 parental): 7.75
pIC50 (HL-60-BCRP; Homo sapiens, 72 h): 7.60
RF (HL-60-BCRP; IC50 HL-60-BCRP / IC50 HL-60 parental): 1.4
effect on tubulin cytoskeleton [1]: gross morphological changes in their tubulin cytoskeleton typical of depolymerising agents
pIC50 (HL-60-MDR(PGP); Homo sapiens, HL60/MDR, HL-60-MDR(PGP), 72 h, Alamar blue, read-out: IC50): 7.74
RF (HL-60-MDR(PGP); IC50 HL-60-MDR(PGP) / IC50 HL-60 parental): 1.03
prevention of MDA-MB-231 cell migration [2]: 95.7%
effect on levels of apoptosis or G2/M (HUVEC cells; 1 nM): not sufficient to affect the levels of apoptosis or G2/M
apoptosis (subG0/G1) (HUVEC cells; 10 nM): 35.1%
cells in the G2/M phase (HUVEC cells; 10 nM): 36.9%
apoptosis (subG0/G1) (HUVEC cells; 50 nM): 31.4%
cells in the G2/M phase (HUVEC cells; 50 nM): 37.0%
apoptosis (subG0/G1) (HUVEC cells; 100 nM): 28.0%
cells in the G2/M phase (HUVEC cells; 100 nM): 39.8%
in vitro tubule formation (HUVECs [3]): prevented spontaneous in vitro tubule formation
inhibition at 0.05 µM (HUVECs [4]): 74%
pIC50 (A2780-parental): 7.63
